From patent US20100029752A1, “NOVEL COMPOUNDS, PHARMACEUTICAL COMPOSITIONS CONTAINING SAME, AND METHODS OF USE FOR SAME” (priority 2005, published 2010)
≈ marks a conversion by molar mass, not a printed value.

Tests used:
[1] = system: MCF-7 human breast cancer cells; test: XTT cytotoxicity assay (M / MCF7); type: cell-based; settings: MCF-7 cells, 72 hours
Protocol: The XTT assay is a non-radioactive alternative for the [^51Cr] release cytotoxicity assay. XTT is a tetrazolium salt that is reduced to a formazan dye only by metabolically active, viable cells. The reduction of XTT is measured spectrophotometrically as OD490-OD650. To measure the cytotoxicity of specific compounds against cancer cells, 9×10^3 MCF-7 human breast cancer cells, obtained from the American Type Culture Collection are plated per well in 96 well plates in DMEM medium with 10% fetal bovine serum, insulin, penicillin, and streptomycin. Following overnight culture at 37° C. and 5% CO2, the compounds to be tested, dissolved in DMSO, are added to the wells in 1 μl volume at the following concentrations: 80, 40, 20, 10, 5, 2.5, 1.25, and 0.625 μg/ml in triplicate. Additional concentrations are tested if required. 1 μl of DMSO is added to triplicate wells are the vehicle control. C75 is run at 40, 20, […], and 5 μg/ml in triplicate as positive controls. After 72 hours of incubation, cells are incubated for 4 hours with the XTT reagent as per manufacturer's instructions (Cell Proliferation Kit 11 (XTT) Roche). Plates are read at OD490 and OD650 on a Molecular Devices SpectraMax Plus Spectrophotometer. Three wells containing the XTT reagent without cells serve as the plate blank. XTT data are reported as OD490-OD650. Averages and standard error of the mean are computed using SOFTmax Pro software ([…]). The IC50 for the compounds is defined as the concentration of drug leading to a 50% reduction in OD490-OD650 compared to controls. The OD490-OD650 are computed by the SOFTmax PRO software (Molecular Devices) for each compound concentration. IC50 is calculated by linear regression, plotting the FAS activity as percent of control versus drug concentrations. Linear regression, best-fit line, r^2, and 95% confidence intervals are determined using Prism Version 3.0 (Graph Pad Software).

[2] = target: T1, purified human FAS (Homo sapiens, UniProt P49327); test: FAS enzymatic activity (malonyl-CoA dependent NADPH oxidation); type: biochemical; settings: purified FAS from ZR-75-1 cells, OD340
T1 construct: Human FAS was purified from cultured ZR-75-1 human breast cancer cells obtained from the American Type Culture Collection; endogenous in cells; host or cells: ZR-75-1 human breast cancer cells (ATCC); enzyme purified by PEG precipitation and Mono Q chromatography
Protocol: Human FAS was purified from cultured ZR-75-1 human breast cancer cells obtained from the American Type Culture Collection. The procedure, adapted from Linn et al., 1981, and Kuhajda et al., 1994, utilizes hypotonic lysis, successive polyethyleneglycol (PEG) precipitations, and anion exchange chromatography. ZR-75-1 cells are cultured at 37° C. with 5% CO2 in RPMI culture medium with 10% fetal bovine serum, penicillin and streptomycin.
Ten T150 flasks of confluent cells are lysed with 1.5 ml lysis buffer (20 mM Tris-HCl, pH 7.5, 1 mM EDTA, 0.1 mM phenylmethanesulfonyl fluoride (PMSF), 0.1% Igepal CA-630) and dounce homogenized on ice for 20 strokes. The lysate is centrifuged in JA-20 rotor (Beckman) at 20,000 rpm for 30 minutes at 4° C. and the supernatant is brought to 42 ml with lysis buffer. A solution of 50% PEG 8000 in lysis buffer is added slowly to the supernatant to a final concentration of 7.5%. After rocking for 60 minutes at 4° C., the solution is centrifuged in JA-20 rotor (Beckman) at 15,000 rpm for 30 minutes at 4° C. Solid PEG 8000 is then added to the supernatant to a final concentration of 15%. After the rocking and centrifugation is repeated as above, the pellet is resuspended overnight at 4° C. in 10 ml of Buffer A (20 mM K2HPO4, pH 7.4). After […] filtration, the protein solution is applied to a Mono Q 5/5 anion exchange column (Pharmacia). The column is washed for 15 minutes with buffer A at 1 ml/minute, and bound material is eluted with a linear 60-ml gradient over 60 minutes to 1 M KCl. FAS (MW˜270 kD) typically elutes at 0.25 M KCl in three 0.5 ml fractions identified using 4-15% SDS-PAGE with Coomassie G250 stain (Bio-Rad). FAS protein concentration is determined using the Coomassie Plus Protein Assay Reagent (Pierce) according to manufacturer's specifications using BSA as a standard. This procedure results in substantially pure preparations of FAS (>95%) as judged by Coomassie-stained gels.
FAS activity is measured by monitoring the malonyl-CoA dependent oxidation of NADPH spectrophotometrically at OD340 in 96-well plates (Dils et al and Arslanian et al, 1975). Each well contains 2 μg purified FAS, 100 mM K2HPO4, pH 6.5, 1 mM dithiothreitol (Sigma), and 187.5 μM β-NADPH (Sigma). Stock solutions of inhibitors are prepared in DMSO at 2, 1, and 0.5 mg/ml resulting in final concentrations of 20, 10, and 5 μg/ml when 1 μl of stock is added per well. For each experiment, cerulenin (Sigma) is run as a positive control along with DMSO controls, inhibitors, and blanks (no FAS enzyme) all in duplicate.
The assay is performed on a Molecular Devices SpectraMax Plus Spectrophotometer. The plate containing FAS, buffers, inhibitors, and controls are placed in the spectrophotometer heated to 37° C. Using the kinetic protocol, the wells are blanked on duplicate wells containing 100 μl of 100 mM K2HPO4, pH 6.5 and the plate is read at OD340 at 10 sec intervals for 5 minutes to measure any malonyl-CoA independent oxidation of NADPH. The plate is removed from the spectrophotometer and malonyl-CoA (67.4 μM, final concentration per well) and […] (61.8 μM, final concentration per well) are added to each well except to the blanks. The plate is read again as above with the kinetic protocol to measure the malonyl-CoA dependent NADPH oxidation. The difference between the ΔOD340 for the malonyl-CoA dependent and non-malonyl-CoA dependent NADPH oxidation is the specific FAS activity. Because of the purity of the FAS preparation, non-malonyl-CoA dependent NADPH oxidation is negligible.
The concentration of compound yielding 50% inhibition of FAS is the IC50. Graphs of ΔOD340 versus time are plotted by the SOFTmax PRO software (Molecular Devices) for each compound concentration. Computation of linear regression, best-fit line, r^2, and 95% confidence intervals are calculated using Prism Version 3.0 (Graph Pad Software).

T1 sequence (P49327 whole entry): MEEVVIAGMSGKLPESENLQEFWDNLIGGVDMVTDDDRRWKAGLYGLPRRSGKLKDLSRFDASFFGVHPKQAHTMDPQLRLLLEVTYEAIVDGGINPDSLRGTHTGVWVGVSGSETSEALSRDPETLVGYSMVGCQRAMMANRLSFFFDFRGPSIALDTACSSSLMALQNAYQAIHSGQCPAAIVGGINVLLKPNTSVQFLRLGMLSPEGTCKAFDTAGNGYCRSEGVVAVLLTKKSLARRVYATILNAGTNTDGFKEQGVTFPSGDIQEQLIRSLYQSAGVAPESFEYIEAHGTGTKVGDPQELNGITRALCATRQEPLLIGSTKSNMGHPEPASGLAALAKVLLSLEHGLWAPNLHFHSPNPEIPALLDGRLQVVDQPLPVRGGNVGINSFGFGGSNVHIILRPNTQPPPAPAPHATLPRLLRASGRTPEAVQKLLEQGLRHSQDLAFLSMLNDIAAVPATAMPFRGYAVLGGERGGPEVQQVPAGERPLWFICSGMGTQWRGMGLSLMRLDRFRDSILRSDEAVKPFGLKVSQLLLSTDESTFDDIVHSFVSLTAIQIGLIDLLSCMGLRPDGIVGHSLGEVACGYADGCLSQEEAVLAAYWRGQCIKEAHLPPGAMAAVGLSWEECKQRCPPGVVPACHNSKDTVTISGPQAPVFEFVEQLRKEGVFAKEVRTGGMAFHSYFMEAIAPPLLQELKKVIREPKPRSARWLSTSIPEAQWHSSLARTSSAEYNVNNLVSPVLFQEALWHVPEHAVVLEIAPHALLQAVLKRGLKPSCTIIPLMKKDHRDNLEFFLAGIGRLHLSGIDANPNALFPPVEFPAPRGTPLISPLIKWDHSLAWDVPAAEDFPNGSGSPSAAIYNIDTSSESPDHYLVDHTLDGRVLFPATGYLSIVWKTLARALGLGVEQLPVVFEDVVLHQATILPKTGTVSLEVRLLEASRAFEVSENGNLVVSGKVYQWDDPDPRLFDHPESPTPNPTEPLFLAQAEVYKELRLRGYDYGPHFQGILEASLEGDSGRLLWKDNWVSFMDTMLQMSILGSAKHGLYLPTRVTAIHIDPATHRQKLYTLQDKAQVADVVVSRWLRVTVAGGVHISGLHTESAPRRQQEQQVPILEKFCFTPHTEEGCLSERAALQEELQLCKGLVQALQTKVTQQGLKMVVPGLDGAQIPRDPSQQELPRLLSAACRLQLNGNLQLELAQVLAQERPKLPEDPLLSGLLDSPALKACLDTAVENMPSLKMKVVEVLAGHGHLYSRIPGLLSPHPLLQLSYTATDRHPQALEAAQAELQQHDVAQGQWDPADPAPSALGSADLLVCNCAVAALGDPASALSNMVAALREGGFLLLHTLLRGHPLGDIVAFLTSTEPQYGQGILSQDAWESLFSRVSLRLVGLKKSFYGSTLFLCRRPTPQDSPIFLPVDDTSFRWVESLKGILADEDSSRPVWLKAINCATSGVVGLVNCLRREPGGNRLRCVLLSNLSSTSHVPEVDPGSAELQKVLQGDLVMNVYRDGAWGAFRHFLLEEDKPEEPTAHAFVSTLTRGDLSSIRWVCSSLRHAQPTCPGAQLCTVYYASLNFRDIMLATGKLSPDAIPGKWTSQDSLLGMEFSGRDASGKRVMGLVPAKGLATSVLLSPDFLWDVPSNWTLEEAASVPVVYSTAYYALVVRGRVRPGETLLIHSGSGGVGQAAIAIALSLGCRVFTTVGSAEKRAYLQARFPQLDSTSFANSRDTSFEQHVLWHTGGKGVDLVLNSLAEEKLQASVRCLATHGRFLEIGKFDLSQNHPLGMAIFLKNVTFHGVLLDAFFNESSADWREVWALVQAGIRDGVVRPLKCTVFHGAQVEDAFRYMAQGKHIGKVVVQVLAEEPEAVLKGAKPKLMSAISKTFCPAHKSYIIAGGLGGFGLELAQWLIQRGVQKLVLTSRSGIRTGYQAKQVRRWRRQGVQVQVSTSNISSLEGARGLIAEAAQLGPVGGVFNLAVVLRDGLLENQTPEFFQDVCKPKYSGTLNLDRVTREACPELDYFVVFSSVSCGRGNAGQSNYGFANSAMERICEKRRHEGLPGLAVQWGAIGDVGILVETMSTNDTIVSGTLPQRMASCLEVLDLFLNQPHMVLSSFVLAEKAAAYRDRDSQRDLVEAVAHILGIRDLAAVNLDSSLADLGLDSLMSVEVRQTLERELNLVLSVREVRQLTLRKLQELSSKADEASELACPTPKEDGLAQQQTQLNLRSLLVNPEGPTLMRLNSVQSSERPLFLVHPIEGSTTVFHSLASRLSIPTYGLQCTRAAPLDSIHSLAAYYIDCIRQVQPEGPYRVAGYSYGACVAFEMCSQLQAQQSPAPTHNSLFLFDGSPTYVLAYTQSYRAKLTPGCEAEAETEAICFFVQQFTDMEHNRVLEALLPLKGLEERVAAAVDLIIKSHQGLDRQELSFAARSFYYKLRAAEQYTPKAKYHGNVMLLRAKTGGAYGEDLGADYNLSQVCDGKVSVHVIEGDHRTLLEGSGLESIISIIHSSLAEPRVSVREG

Compound | FAS (IC50) [2] | IC50 [2] | IC50 [1]
COC(=O)c1sc(C(=O)NNc2ccc(Cl)cc2)cc1O |  | 230 µM | > 80 µg/mL
CCCCCCCCNC(=O)c1cc(O)cs1 | Neg |  | 9.9 µg/mL (≈ 38.8 µM)
COC(=O)c1sc(C(=O)O)cc1O | Neg |  | > 80 µg/mL
C=CCNC(=O)c1cc(O)c(C(=O)OC)s1 | Neg |  | > 80 µg/mL

Continued, in another order:

FAS (IC50) [2] | IC50 [2] | Compound | IC50 [1]
Neg |  | CCCCCCCCNC(=O)c1cc(O)c(C(=O)OC)s1 | 47.5 µg/mL (≈ 152 µM)
Neg |  | CCCCCCCCNNC(=O)c1cc(O)c(C(=O)OC)s1 | 73.3 µg/mL (≈ 223 µM)
